The values that follow come from patent EP2970215B1, “PYRROLIDINE DERIVATIVES, PHARMACEUTICAL COMPOSITIONS CONTAINING THEM, AND THEIR USE IN THERAPY” (AbbVie Deutschland GmbH & Co. KG, priority 2013, dated 2014).

Each structure is given as a SMILES string. pKi: −log10 of the molar value.

In one assay the target is T1, human GlyT1c transporter (Homo sapiens, UniProt P48067).
T1 construct: expressed in transfected cells; host or cells: CHO cells (recombinant; line hGlyT1c_5_CHO is named for the uptake assay)
T1 sequence (P48067 1-706): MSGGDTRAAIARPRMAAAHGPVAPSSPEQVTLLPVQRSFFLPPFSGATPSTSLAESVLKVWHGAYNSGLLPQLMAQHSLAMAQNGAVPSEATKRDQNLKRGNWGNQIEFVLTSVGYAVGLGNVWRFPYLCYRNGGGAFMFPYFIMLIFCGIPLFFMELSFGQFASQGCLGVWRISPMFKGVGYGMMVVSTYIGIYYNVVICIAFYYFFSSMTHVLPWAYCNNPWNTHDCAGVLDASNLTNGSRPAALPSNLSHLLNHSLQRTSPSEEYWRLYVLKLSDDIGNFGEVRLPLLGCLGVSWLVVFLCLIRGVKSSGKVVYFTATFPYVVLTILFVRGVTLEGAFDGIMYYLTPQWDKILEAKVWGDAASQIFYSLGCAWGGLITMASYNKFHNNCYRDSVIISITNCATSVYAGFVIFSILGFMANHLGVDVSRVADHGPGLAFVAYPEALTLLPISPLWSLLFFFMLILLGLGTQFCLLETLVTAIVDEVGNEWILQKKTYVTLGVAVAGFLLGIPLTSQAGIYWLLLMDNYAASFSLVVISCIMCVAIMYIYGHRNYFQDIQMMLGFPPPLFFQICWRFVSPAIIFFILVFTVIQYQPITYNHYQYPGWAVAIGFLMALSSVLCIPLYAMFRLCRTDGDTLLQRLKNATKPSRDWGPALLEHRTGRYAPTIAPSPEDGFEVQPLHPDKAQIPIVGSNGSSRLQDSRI
As to the kind of experiment: Radioligand binding assay using recombinant CHO cell membranes expressing human GlyT1. The conditions noted are these: radioligand binding to human GlyT1c transporter-expressing membranes. An excerpt:
2. Radioligand binding assays using recombinant CHO cell membranes expressing human GlyT1: […]
As a reminder, the pKi is −log10 of the Ki, conventionally taken in molar units. With `Cn1cnc(S(=O)(=O)N2C[C@H](NCc3ccc(C4CCCCO4)s3)[C@@H](c3ccccc3)C2)c1` (stereo partly drawn) [Example 558, (3R,4S)-1-[(1-methyl-1H-imidazol-4-yl)sulfonyl]-4-phenyl-N-{[5-(tetrahydro-2H-pyran-2-yl)thiophen-2-yl]methyl}pyrrolidin-3-amine], the pKi was at least 5.00.
Still for that read-out and setting: under `Cn1cnc(S(=O)(=O)N2C[C@@H](NCc3ccccc3F)[C@H](c3ccc(F)cc3)C2)c1` (relative stereo) [Example 263, trans-N-(2-fluorobenzyl)-4-(4-fluorophenyl)-1-[(1-methyl-1H-imidazol-4-yl)sulfonyl]pyrrolidin-3-amine] stands at least 7.00; under `Cn1cnc(S(=O)(=O)N2C[C@@H](Nc3cc(C#N)ccc3Cl)[C@H](c3ccccc3)C2)c1` (relative stereo) [Example 81, 4-chloro-3-({trans-1-[(1-methyl-1H-imidazol-4-yl)sulfonyl]-4-phenylpyrrolidin-3-yl}amino)benzonitrile], at least 5.00; under `Cc1cc(N[C@@H]2CN(S(=O)(=O)c3cn(C)cn3)C[C@H]2c2ncccc2F)ccc1F` (relative stereo) [Example 775, Trans-N-(4-fluoro-3-methylphenyl)-4-(3-fluoropyridin-2-yl)-1-[(1-methyl-1H-imidazol-4-yl)sulfonyl]pyrrolidin-3-amine], at least 6.00.
As for `Cn1cnc(S(=O)(=O)N2C[C@@H](Nc3cccc(F)c3)[C@H](c3cccc(F)c3)C2)c1` (relative stereo) [Example 186, trans-N,4-bis(3-fluorophenyl)-1-[(1-methyl-1H-imidazol-4-yl)sulfonyl]pyrrolidin-3-amine], the pKi is at least 6.00.
Same read-out and setting: under `Cn1cnc(S(=O)(=O)N2C[C@@H](C(=O)NCc3cc(C(F)(F)F)ccc3Cl)[C@H](c3ccc(F)cc3)C2)c1` (relative stereo) [Example 633, Trans-N-[2-chloro-5-(trifluoromethyl)benzyl]-4-(4-fluorophenyl)-1-[(1-methyl-1H-imidazol-4-yl)sulfonyl]pyrrolidine-3-carboxamide] stands at least 6.00.
As to `Cn1cnc(S(=O)(=O)N2C[C@H](NCc3ccc(C(F)(F)F)cn3)[C@@H](c3ccccc3)C2)c1` [Example 409, (3R,4S)-1-[(1-methyl-1H-imidazol-4-yl)sulfonyl]-4-phenyl-N-{[5-(trifluoromethyl)pyridin-2-yl]methyl}pyrrolidin-3-amine], the pKi was at least 7.00.
On to `Cn1cnc(S(=O)(=O)N2C[C@@H](Nc3cc(F)ccc3F)[C@H](c3ccccc3)C2)c1` (relative stereo) [Example 232, trans-N-(2,5-difluorophenyl)-1-[(1-methyl-1H-imidazol-4-yl)sulfonyl]-4-phenylpyrrolidin-3-amine], for which the pKi is at least 5.00.
For the compound `CCc1cc(N[C@H]2CN(S(=O)(=O)c3cn(C)cn3)C[C@@H]2c2ccc(F)cc2)ncn1` [Example 613, 6-ethyl-N-{(3R,4S)-4-(4-fluorophenyl)-1-[(1-methyl-1H-imidazol-4-yl)sulfonyl]pyrrolidin-3-yl}pyrimidin-4-amine], the pKi is at least 6.00.
Consider `Cn1cnc(S(=O)(=O)N2C[C@H](NCc3cncs3)[C@@H](c3ccccc3)C2)c1` [Example 457, (3R,4S)-1-[(1-methyl-1H-imidazol-4-yl)sulfonyl]-4-phenyl-N-(1,3-thiazol-5-ylmethyl)pyrrolidin-3-amine], for which the pKi was at least 5.00.
In the case of `CCCCCN(CCCCC)[C@@H]1CN(S(=O)(=O)c2cn(C)cn2)C[C@H]1c1ncccc1F` (relative stereo) [Example 764, Trans-4-(3-fluoropyridin-2-yl)-1-[(1-methyl-1H-imidazol-4-yl)sulfonyl]-N,N-dipentylpyrrolidin-3-amine], the pKi was at least 6.00.
As to `Cc1cccc(C(=O)N[C@@H]2CN(S(=O)(=O)c3cn(C)cn3)C[C@H]2c2ccccc2)c1` (relative stereo) [Example 23, 3-methyl-N-{trans-1-[(1-methyl-1H-imidazol-4-yl)sulfonyl]-4-phenylpyrrolidin-3-yl}benzamide], the pKi was at least 5.00.
Still for that read-out and setting: then `Cn1cnc(S(=O)(=O)N2C[C@@H](Nc3ccc(F)c(F)c3)[C@H](c3ccc(F)cc3)C2)c1` (relative stereo) [Example 158, trans-N-(3,4-difluorophenyl)-4-(4-fluorophenyl)-1-[(1-methyl-1H-imidazol-4-yl)sulfonyl]pyrrolidin-3-amine], with at least 7.00; and `Cn1cnc(S(=O)(=O)N2C[C@@H](N3Cc4cc(C(F)(F)F)ccc4NC3=O)[C@H](c3ccccc3)C2)c1` (relative stereo) [Example 404, 3-{Trans-1-[(1-methyl-1H-imidazol-4-yl)sulfonyl]-4-phenylpyrrolidin-3-yl}-6-(trifluoromethyl)-3,4-dihydroquinazolin-2(1H)-one], with at least 5.00; and `Cn1cnc(S(=O)(=O)N2C[C@@H](Nc3ccc(C#N)cc3F)[C@H](c3ccccc3)C2)c1` (relative stereo) [Example 53, 3-fluoro-4-({trans-1-[(1-methyl-1H-imidazol-4-yl)sulfonyl]-4-phenylpyrrolidin-3-yl}amino)benzonitrile], with at least 5.00.
With `Cn1cnc(S(=O)(=O)N2C[C@@H](NCc3ccc(Cl)cc3Cl)[C@H](c3ccccc3Cl)C2)c1` (relative stereo) [Example 284, trans-4-(2-chlorophenyl)-N-(2,4-dichlorobenzyl)-1-[(1-methyl-1H-imidazol-4-yl)sulfonyl]pyrrolidin-3-amine], the pKi was at least 7.00.
The same measure, in the same setting: then `Cn1cnc(S(=O)(=O)N2C[C@H](Nc3cc(OCC4CCCN4)ncn3)[C@@H](c3ccc(F)cc3)C2)c1` (stereo partly drawn) [Example 780, N-{(3R,4S)-4-(4-fluorophenyl)-1-[(1-methyl-1H-imidazol-4-yl)sulfonyl]pyrrolidin-3-yl}-6-(pyrrolidin-2-ylmethoxy)pyrimidin-4-amine], with at least 5.00.
Same read-out and setting: under `Cn1cnc(S(=O)(=O)N2C[C@@H](OCc3cccc(F)c3)[C@H](c3ccc(F)cc3)C2)c1` (relative stereo) [Example 712, 4-{[trans-3-[(3-fluorobenzyl)oxy]-4-(4-fluorophenyl)pyrrolidin-1-yl]sulfonyl}-1-methyl-1H-imidazole] stands at least 6.00.
For the compound `COCCCNC[C@@H]1CN(S(=O)(=O)c2cn(C)cn2)C[C@H]1c1ccc(F)cc1` (relative stereo) [Example 597, N-({trans-4-(4-fluorophenyl)-1-[(1-methyl-1H-imidazol-4-yl)sulfonyl]pyrrolidin-3-yl}methyl)-3-methoxypropan-1-amine], the pKi was at least 5.00.
Turning to `Cn1cnc(S(=O)(=O)N2C[C@@H](NCc3ccc(Cl)cc3Cl)[C@H](c3cccnc3)C2)c1` (relative stereo) [Example 286, trans-N-(2,4-dichlorobenzyl)-1-[(1-methyl-1H-imidazol-4-yl)sulfonyl]-4-(pyridin-3-yl)pyrrolidin-3-amine], the pKi is at least 5.00.
On the same count and under the same terms, under `Cn1cnc(S(=O)(=O)N2C[C@H](Nc3cc(OCC(F)(F)F)c(F)cn3)[C@@H](c3ccc(F)cc3)C2)c1` [Example 810, 5-fluoro-N-{(3R,4S)-4-(4-fluorophenyl)-1-[(1-methyl-1H-imidazol-4-yl)sulfonyl]pyrrolidin-3-yl}-4-(2,2,2-trifluoroethoxy)pyridin-2-amine] stands at least 8.00; under `O=S(=O)(c1cnc2n1CCC2)N1CC(Nc2ccc(F)c(F)c2)C(c2ccccc2)C1` (centres unmarked) [Example 497, N-(3,4-difluorophenyl)-1-(6,7-dihydro-5H-pyrrolo[1,2-a]imidazol-3-ylsulfonyl)-4-phenylpyrrolidin-3-amine], at least 5.00.
On the same count and under the same terms, then `O=C(N[C@@H]1CN(S(=O)(=O)c2cccnc2)C[C@H]1c1ccccc1)c1cccc(C(F)(F)F)c1Cl` (relative stereo) [Example 45, 2-chloro-N-[trans-4-phenyl-1-(pyridin-3-ylsulfonyl)pyrrolidin-3-yl]-3-(trifluoromethyl)benzamide], with at most 5.00.
On the same count and under the same terms, under `Cn1cnc(S(=O)(=O)N2C[C@@H](Nc3cc(F)cc(C#N)c3)[C@H](c3ccccc3)C2)c1` (relative stereo) [Example 78, 3-fluoro-5-({trans-1-[(1-methyl-1H-imidazol-4-yl)sulfonyl]-4-phenylpyrrolidin-3-yl}amino)benzonitrile] stands at least 6.00.
Turning to `O=S(=O)(N1CCOCC1)N1CC(Nc2ccc(F)c(F)c2)C(c2ccccc2)C1` (centres unmarked) [Example 521, N-(3,4-difluorophenyl)-1-(morpholin-4-ylsulfonyl)-4-phenylpyrrolidin-3-amine], the pKi was at least 5.00.

Still in this assay, the particulars now being: radioligand binding, recombinant CHO cell membranes expressing human GlyT1c.
Consider `Cn1cc(S(=O)(=O)N2C[C@H](Nc3cccc(C(F)(F)F)c3)[C@@H](c3ccc(F)cc3)C2)nn1` [Example 839, (3R,4S)-4-(4-fluorophenyl)-1-[(1-methyl-1H-1,2,3-triazol-4-yl)sulfonyl]-N-[3-(trifluoromethyl)phenyl]pyrrolidin-3-amine], for which the pKi is at least 8.00.
